Legend:
Assay type in all cases: biochemical
[1] = metal chelating assay (EDTA chelating activity); conditions: mean ± S.D.; NA: not active
Description: (§1) Six in vitro assays were employed to evaluate the antioxidant activity of the three Salvia EOs. These were radical scavenging activity using 2,2-diphenyl-1-picryl-hydrazyl (DPPH), 2,2′-azino-bis(3-ethylbenzothiazoline-6-sulfonic acid) (ABTS) radical cation-based assay, total antioxidant capacity using cupric-reducing antioxidant capacity assay (CUPRAC), ferric-reducing antioxidant power assay (FRAP), EDTA chelating activity and phosphomolybdenum (PBD) assay.
(§2) In vitro assays were employed to evaluate the antioxidant activity of the three Salvia EOs using the 2,2-diphenyl-1-picryl-hydrazyl (DPPH), 2,2′-azino-bis(3-ethylbenzothiazoline-6-sulfonic acid) (ABTS) radical-cation-based assay, total antioxidant capacity using cupric-reducing antioxidant capacity assay (CUPRAC), ferric-reducing antioxidant power assay (FRAP), EDTA chelating activity and phosphomolybdenum (PBD) assay. These assays were performed according to previously described standard procedures, and values are expressed as Trolox or EDTA equivalent. The experimental procedures are given in supplemental materials. To provide a comparison with standard compounds, IC50 values (the half inhibitory concentration) were also calculated for DPPH, ABTS and metal chelating assays.

[2] = ABTS radical cation-based assay; conditions: mean ± S.D.
Description: as §1, §2

[3] = DPPH radical scavenging assay; conditions: mean ± S.D. of three measurements; NA: not active
Description: as §1, §2

[4] = phosphomolybdenum (PBD) assay; conditions: concentration at which absorbance is 0.5; mean ± S.D.
Description: as §1, §2

[5] = cupric-reducing antioxidant capacity assay (CUPRAC); conditions: concentration at which absorbance is 0.5; mean ± S.D.
Description: as §1, §2

[6] = ferric-reducing antioxidant power assay (FRAP); conditions: concentration at which absorbance is 0.5; mean ± S.D.
Description: as §1, §2

| Compound | Chelating IC50 [1] | ABTS IC50 [2] | DPPH IC50 [3] | PBD IC50 [4] | CUPRAC IC50 [5] | FRAP IC50 [6] |
| --- | --- | --- | --- | --- | --- | --- |
| O=C(O)CN(CCN(CC(=O)O)CC(=O)O)CC(=O)O [EDTA] | 40 ± 10 µg/mL | – | – | – | – | – |
| Cc1c(C)c2c(c(C)c1O)CCC(C)(C(=O)O)O2 (stereo not drawn) [Trolox] | – | 650 ± 90 µg/mL | 220 ± 10 µg/mL | 680 ± 10 µg/mL | 440 ± 20 µg/mL | 170 ± 10 µg/mL |
